Measured values as given in patent US20230190761A1, “METHYLENE BLUE STABILIZED MRNA COMPOSITIONS” (ModernaTX, Inc., priority 2020, published 2023).
“Also recorded” adds a separate entry of the source.

Experiments:
Assay type in all cases: physicochemical
[1] = test system: lipid nanoparticles (LNP); experiment: Permeation of phenothiazinium dyes into LNP and binding to encapsulated mRNA; conditions: optical spectroscopic studies, Cryo-EM, DLS, isothermal titration calorimetry
From the text: This example describes phenothiazinium dyes which interact with mRNA and their impact on LNP formulations. […] These interpretations were made based on extensive optical spectroscopic studies, Cryo-EM, dynamic light scattering (DLS) and isothermal titration calorimetry studies.

[2] = LC/MS analysis of PEG-lipid stability in presence of methylene blue
Description: This example describes the effects of methylene blue on lipid components of LNP formulations. PEG-lipid is known to be susceptible to oxidative degradation. Given the degradation mechanism attributed to methylene blue, an accelerated study was performed to evaluate whether the presence of methylene blue adversely affects PEG-lipid stability. Lyso-PEG-DMG is considered a primary bellwether of PEG-lipid degradation. As such, its concentration in samples was measured using liquid chromatography/mass spectrometry (LC/MS) after storage of LNPs at room temperature (FIG. 7A) or 5° C. (FIG. 7B) in the presence of a range of methylene blue concentrations.

mRNA-LNP formulations = experiment: mRNA-LNP stability in differing buffer conditions with or without methylene blue (fragmentation analysis and RP-HPLC); conditions: 150 mM NaCl, 2 mM MB
Description: This example discusses stabilization effects of methylene blue on mRNA-LNP formulations in varying buffer conditions. To match experiments conducted on lyophilized products, which were reconstituted in saline, and refrigerated/frozen formulations in TRIS-Sucrose, two buffers across the range of pH were tested. Sodium chloride was added to mimic saline, as it can cause methylene blue to crash out of solution.

mRNA-LNP [3] = experiment: DOE study of solution composition with and without methylene blue, main peak purity by RP-HPLC; conditions: 2 mM methylene blue, 40° C. ~1 week
From the text: To broadly evaluate the effect of methylene blue under a large number of systematically varied solution conditions, a design of experiment (DOE) approach was utilized.

mRNA in LNP formulations = experiment: mRNA-LNP purity by RP-HPLC and fragment analysis, 40° C. 12 days, light vs dark
Description: As detailed in this example, samples are labeled as follows: A=0 mM methylene blue; B=0.5 mM methylene blue; C=1 mM methylene blue; D=1.5 mM methylene blue; and E=2.0 mM methylene blue.
After incubating samples at 40° C. for 12 days, either protected from light or unprotected, fragmentation analysis was conducted to evaluate the presence of lipid-RNA adducts.

mRNA-LNP [4] = experiment: DLS characterization of mRNA-LNP physical stability in presence of methylene blue
From the text: Particle size (e.g., particle diameter) can be determined by Dynamic Light Scattering (DLS). DLS measures a hydrodynamic diameter. Smaller particles diffuse more quickly, leading to faster fluctuations in the scattering intensity and shorter decay times for the autocorrelation function. Larger particles diffuse more slowly, leading to slower fluctuations in the scattering intensity and longer decay times in the autocorrelation function.
In view of the surprising and somewhat counter-intuitive finding that methylene blue enhanced stability of mRNA-LNP formulations, additional experimentation was conducted. The stability of mRNA-LNPs in the presence of increasing levels of methylene blue was investigated upon incubation at 5° C., 25° C. or 40° C. for 10 days. […] In addition to chemical stability, a careful examination of the possible impact of methylene blue on the physical state of the LNP was performed using dynamic light scattering (DLS). This technique is exquisitely sensitive to tiny changes in hydrodynamic nanoparticle size, especially with respect to the formation of larger aggregates known to be a common physical degradation mode of many LNPs.
After the 3 week incubation, samples were analyzed by dynamic light scattering (DLS) to characterize the hydrodynamic diameters of LNPs.
Samples were measured by dynamic light scattering (DLS) in PBS after being filtered through 0.8 μm filters to remove large particulates.

[5] = test system: mRNA in LNP formulation containing two mRNA; experiment: Chemical stability of mRNA-LNP after 5 months refrigerated storage
Description: This example relates to stabilization of mRNA in LNP formulations by the addition of methylene blue over long-term refrigerated storage. […] To confirm that this stabilization effect would also occur with long-term refrigerated storage, a study was conducted to evaluate the effect of various concentrations of methylene blue (0, 0.5, 1, 1.5 and 2.0 mM) on the stability of a lipid nanoparticle formulation containing two distinct mRNA compounds stored at 5° C.
To determine the effects of methylene blue on the chemical stability of mRNA-LNP formulations over long-term refrigerated storage, mRNA purity, mRNA fragmentation, and mRNA-lipid adduct formation were measured over time in mRNA-LNP samples containing varying concentrations of methylene blue (A=0 mM, B=0.5 mM, C=1.0 mM, D=1.5 mM, E=2.0 mM methylene blue). Total purity was determined according to main peak percentage by RP-HPLC (FIG. 13A), fragmentation was determined according to fragmentation analysis (FIG. 13B), and mRNA-lipid adduct formation was determined according to RP-HPLC (FIG. 13C).

## CN(C)c1ccc2nc3ccc(N(C)C)cc3[s+]c2c1 [methylene blue]
[1]
  permeation of lipid nanoparticles and binding to encapsulated mRNA: does not permeate LNPs to the same extent as certain other phenothiazinium dyes
[2]; 0, 0.1, 0.5 and 1 mM methylene blue, 1 week at room temperature or 5° C.
  total quantity of PEG-lipid (LC/MS): no effect on the total quantity of PEG-lipid present
[2]; 0 to 1.0 mM methylene blue, LNPs at room temperature or 5° C., 1 week
  Lyso-PEG-DMG signal (LC/MS): no difference in Lyso-PEG-DMG signal was detected
mRNA-LNP formulations; pH 7, TRIS-sucrose buffer
  Adduct: 17.6%
  Fragmentation: 16.0%
  Main peak: 66.4%
mRNA-LNP formulations; pH 7, phosphate buffer
  Adduct: 23.9%
  Fragmentation: 17.1%
  Main peak: 59.1%
mRNA-LNP formulations; pH 7.5, TRIS-sucrose buffer
  Adduct: 16.4%
  Fragmentation: 19.5%
  Main peak: 64.1%
mRNA-LNP formulations; pH 7.5, phosphate buffer
  Adduct: 22.0%
  Fragmentation: 18.7%
  Main peak: 59.4%
mRNA-LNP formulations; pH 8, TRIS-sucrose buffer
  Adduct: 15.9%
  Fragmentation: 22.9%
  Main peak: 61.2%
mRNA-LNP formulations; pH 8, phosphate buffer
  Adduct: 22.7%
  Fragmentation: 25.0%
  Main peak: 52.2%
mRNA-LNP formulations; pH 8.5, TRIS-sucrose buffer
  Adduct: 13.3%
  Fragmentation: 32.5%
  Main peak: 54.1%
mRNA-LNP [3]; 14 buffer/pH/NaCl conditions
  average purity of the 14 samples: 60±6%
mRNA-LNP [3]; Tris or phosphate buffer pH 7.0-8.5, 0 or 150 mM NaCl, RP-HPLC
  main peak mRNA purity (range over samples 15-28): 50-70%
mRNA in LNP formulations; 12 days, protected from light, 0.5-2.0 mM methylene blue, vs −80 C controls
  mRNA stability by RP-HPLC and fragmentation analysis: enhanced the stability of mRNA in LNP formulations
mRNA in LNP formulations; 12 days, unprotected from light, samples B-E (0.5-2.0 mM methylene blue)
  mRNA degradation by RP-HPLC and fragmentation analysis: more mRNA degradation than samples stored protected from light or those without methylene blue
mRNA in LNP formulations; protected from light
  adduct formation: did not have a detrimental effect on adduct formation
mRNA-LNP [4]; 0.5-2.0 mM methylene blue, 3 weeks refrigerated storage
  LNP size distributions and average hydrodynamic diameters by DLS: does not have an impact on the overall lipid nanoparticle structure
mRNA-LNP [4]; up to 2.0 mM methylene blue, 5 months refrigerated storage
  hydrodynamic size or size distribution (polydispersity index) of LNP by DLS: no significant impact
mRNA-LNP [4]; up to 6 mM methylene blue, 10 days at 5° C., 25° C. and 40° C.
  hydrodynamic size / physical stability of the LNP by DLS: no significant effect on hydrodynamic size of the LNP; also recorded: no impact on the physical stability of the mRNA-LNP
[5]; 5 months refrigerated storage, RP-HPLC
  optimal methylene blue concentration with respect to adduct formation: 1.5 mM
[5]; methylene blue as low as 0.5 mM, 5 months (151 days) refrigerated storage
  mRNA fragmentation rate: significantly inhibit mRNA fragmentation rate relative to LNP compositions lacking dye; also recorded: significantly inhibited relative to control
